Earlier results as cited in US8828415B2, “Microcapsules with acetylene carbamide-polyurea polymers and formulations thereof for controlled release” (priority 2006, dated 2014).

Assays:
mice = conditions: for 4 h
[1] = for cancer (Ames test): MSDS of Sigma-Aldrich and CYTEC

SMILES	pulmonary sensitization in guinea pigs (guinea pigs)	acute inhalation toxicity (LC50) (mice)	affects respiratory system in humans at long term (3 y) (humans)	cancer (Ames test) [1]	cancer: CMR category ([1]; MSDS)	cancer: IARC classification ([1]; MSDS)
Cc1ccc(N=C=O)cc1N=C=O [TDI, 2,4-toluenediisocyanate]	Yes	10 ppm for 4 h - mice	Yes	carcinogenic (Ames test)	CMR Cat. Carcinogen 3	IARC carrcinogen 2B
CC(C)(N=C=O)c1cccc(C(C)(C)N=C=O)c1 [TMXDI, alpha-, alpha-, alpha-, alpha-tetramethyl xylylene diisocyanate]	no	27 ppm for 4 h -	no	not carcinogenic	–	–
